Assay results taken from patent US9150577B2, “Heterocyclic compounds containing an indole core” (Boehringer Ingelheim International GmbH, priority 2009, dated 2015).

Molecular target: Human RSK2 (Homo sapiens (Human), UniProt P51812)
Test: Human RSK2 assay (Kinase Glo Plus, residual ATP);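 note: recombinant human RSK2 phosphorylating a substrate peptide, 90 min at 28 °C, leftover ATP read by luminescence, RLU scaled between no-kinase background and uninhibited kinase controls, 4-parameter fit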
Type: biochemical

Chain of Human RSK2 (P51812 whole entry): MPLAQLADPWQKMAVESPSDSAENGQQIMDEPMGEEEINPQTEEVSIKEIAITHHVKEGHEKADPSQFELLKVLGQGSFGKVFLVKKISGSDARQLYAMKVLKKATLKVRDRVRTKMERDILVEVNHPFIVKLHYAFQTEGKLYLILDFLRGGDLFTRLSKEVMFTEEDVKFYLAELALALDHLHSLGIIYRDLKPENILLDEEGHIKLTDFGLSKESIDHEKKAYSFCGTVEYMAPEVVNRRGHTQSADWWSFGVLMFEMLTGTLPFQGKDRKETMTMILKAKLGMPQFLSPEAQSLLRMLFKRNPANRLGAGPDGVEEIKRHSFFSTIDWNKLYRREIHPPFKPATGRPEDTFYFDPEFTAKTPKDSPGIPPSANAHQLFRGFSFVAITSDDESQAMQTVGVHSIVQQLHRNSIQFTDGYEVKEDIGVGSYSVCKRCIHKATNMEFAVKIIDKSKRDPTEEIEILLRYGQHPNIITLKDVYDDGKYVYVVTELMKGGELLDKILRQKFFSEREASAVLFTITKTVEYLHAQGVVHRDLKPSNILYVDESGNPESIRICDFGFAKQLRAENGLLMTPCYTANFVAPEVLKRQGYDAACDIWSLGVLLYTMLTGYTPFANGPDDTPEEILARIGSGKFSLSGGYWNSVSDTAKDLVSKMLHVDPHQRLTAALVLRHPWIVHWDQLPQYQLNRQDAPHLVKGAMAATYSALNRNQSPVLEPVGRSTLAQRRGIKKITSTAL

Row | Compound | IC50 [nM]
1 | CC(C)n1ncc2cc(NC(=O)c3ccc4cc5n(c4c3)[C@@H](C)[C@@H](C)NC5=O)cnc21 (relative stereo) [Example 18, cis-3,4-dimethyl-1-oxo-N-[1-(propan-2-yl)-1H-pyrazolo[3,4-b]pyridin-5-yl]-1,2,3,4-tetrahydropyrazino[1,2-a]indole-7-carboxamide] | 8.1
2 | C[C@H]1NC(=O)c2cc3ccc(C(=O)Nc4cnn(C)c4)cc3n2[C@H]1C (relative stereo) [Example 21, cis-3,4-dimethyl-N-(1-methyl-1H-pyrazol-4-yl)-1-oxo-1,2,3,4-tetrahydropyrazino[1,2-a]indole-7-carboxamide] | 4.3
3 | C[C@H]1NC(=O)c2cc3ccc(C(=O)Nc4cnn(Cc5ccccc5)c4)cc3n2[C@H]1C (relative stereo) [Example 29, N-(1-benzyl-1H-pyrazol-4-yl)-cis-3,4-dimethyl-1-oxo-1,2,3,4-tetrahydropyrazino[1,2-a]indole-7-carboxamide] | 1.9
4 | C[C@@H]1NC(=O)c2cc3ccc(C(=O)Nc4cnn(Cc5ccccc5)c4)cc3n2[C@H]1C (relative stereo) [Example 30, N-(1-benzyl-1H-pyrazol-4-yl)-trans-3,4-dimethyl-1-oxo-1,2,3,4-tetrahydropyrazino[1,2-a]indole-7-carboxamide] | 10
5 | CC(C)n1c(NC(=O)c2ccc3cc4n(c3c2)[C@@H](C)[C@@H](C)NC4=O)nc2ccccc21 (relative stereo) [Example 67, cis-3,4-dimethyl-1-oxo-N-[1-(propan-2-yl)-1H-benzimidazol-2-yl]-1,2,3,4-tetrahydropyrazino[1,2-a]indole-7-carboxamide] | 3.4
6 | CC(C)n1c(NC(=O)c2ccc3cc4n(c3c2)[C@@H](C)[C@@H](C)CNC4=O)nc2ccccc21 (relative stereo) [Example 70, cis-4,5-dimethyl-1-oxo-N-[1-(propan-2-yl)-1H-benzimidazol-2-yl]-2,3,4,5-tetrahydro-1H-[1,4]diazepino[1,2-a]indole-8-carboxamide] | 1.8
7 | CCn1c(NC(=O)c2ccc3cc4n(c3c2)[C@@H](C)[C@@H](C)NC4=O)nc2ccccc21 (relative stereo) [Example 79, N-(1-ethyl-1H-benzimidazol-2-yl)-cis-3,4-dimethyl-1-oxo-1,2,3,4-tetrahydropyrazino[1,2-a]indole-7-carboxamide] | 0.64
8 | CCn1c(NC(=O)c2ccc3cc4n(c3c2)[C@@H](C)[C@H](C)NC4=O)nc2ccccc21 (relative stereo) [Example 80, N-(1-ethyl-1H-benzimidazol-2-yl)-trans-3,4-dimethyl-1-oxo-1,2,3,4-tetrahydropyrazino[1,2-a]indole-7-carboxamide] | 5
9 | C[C@H]1NC(=O)c2cc3ccc(C(=O)Nc4nc5ccccc5n4CCCN(C)C)cc3n2[C@H]1C (relative stereo) [Example 90, N-{1-[3-(dimethylamino)propyl]-1H-benzimidazol-2-yl}-cis-3,4-dimethyl-1-oxo-1,2,3,4-tetrahydropyrazino[1,2-a]indole-7-carboxamide] | 2.1
10 | C[C@@H]1NC(=O)c2cc3ccc(C(=O)Nc4nc5ccccc5n4CCCN(C)C)cc3n2[C@H]1C (relative stereo) [Example 91, N-{1-[3-(dimethylamino)propyl]-1H-benzimidazol-2-yl}-trans-3,4-dimethyl-1-oxo-1,2,3,4-tetrahydropyrazino[1,2-a]indole-7-carboxamide] | 8.5
11 | C[C@H]1CNC(=O)c2cc3ccc(C(=O)Nc4nc5ccccc5n4CCCN(C)C)cc3n2[C@H]1C (relative stereo) [Example 92, N-{1-[3-(dimethylamino)propyl]-1H-benzimidazol-2-yl}-cis-4,5-dimethyl-1-oxo-2,3,4,5-tetrahydro-1H-[1,4]diazepino[1,2-a]indole-8-carboxamide] | 2
12 | C[C@H]1CNC(=O)c2cc3ccc(C(=O)Nc4cnn(Cc5ccccc5)c4)cc3n2[C@H]1C (relative stereo) [Example 136, N-(1-benzyl-1H-pyrazol-4-yl)-cis-4,5-dimethyl-1-oxo-2,3,4,5-tetrahydro-1H-[1,4]diazepino[1,2-a]indole-8-carboxamide] | 9.3
13 | C[C@H]1CNC(=O)c2cc3ccc(C(=O)Nc4cccnc4)cc3n2[C@H]1C (relative stereo) [Example 150, Cis-4,5-dimethyl-1-oxo-N-(pyridin-3-yl)-2,3,4,5-tetrahydro-1H-[1,4]diazepino[1,2-a]indole-8-carboxamide] | 240
14 | C[C@@H]1CNC(=O)c2cc3ccc(C(=O)Nc4cccnc4)cc3n2[C@H]1C (relative stereo) [Example 151, Trans-4,5-dimethyl-1-oxo-N-(pyridin-3-yl)-2,3,4,5-tetrahydro-1H-[1,4]diazepino[1,2-a]indole-8-carboxamide] | 1100
15 | Cc1cc(NC(=O)c2ccc3cc4n(c3c2)[C@@H](C)[C@H](C)NC4=O)no1 (relative stereo) [Example 168, Trans-3,4-dimethyl-N-(5-methyl-1,2-oxazol-3-yl)-1-oxo-1,2,3,4-tetrahydropyrazino[1,2-a]indole-7-carboxamide] | 160
16 | Cc1cc(NC(=O)c2ccc3cc4n(c3c2)[C@@H](C)[C@H](C)CNC4=O)no1 (relative stereo) [Example 169, Trans-4,5-dimethyl-N-(5-methyl-1,2-oxazol-3-yl)-1-oxo-2,3,4,5-tetrahydro-1H-[1,4]diazepino[1,2-a]indole-8-carboxamide] | 570
17 | C[C@H]1NC(=O)c2cc3ccc(C(=O)Nc4cccnc4)cc3n2[C@H]1C (relative stereo) [Example 179, Cis-3,4-dimethyl-1-oxo-N-(pyridin-3-yl)-1,2,3,4-tetrahydropyrazino[1,2-a]indole-7-carboxamide] | 45

Row | Compound | IC50 [nM]
18 | C[C@@H]1NC(=O)c2cc3ccc(C(=O)Nc4cccnc4)cc3n2[C@H]1C (relative stereo) [Example 180, Trans-3,4-dimethyl-1-oxo-N-(pyridin-3-yl)-1,2,3,4-tetrahydropyrazino[1,2-a]indole-7-carboxamide] | 895
19 | O=C(Nc1cccc(Cl)c1)c1ccc2cc3n(c2c1)CCCNC3=O [Example 1, N-(3-chlorophenyl)-1-oxo-2,3,4,5-tetrahydro-1H-[1,4]diazepino[1,2-a]indole-8-carboxamide] | 270
20 | Cc1cc(NC(=O)c2ccc3cc4n(c3c2)CCCNC4=O)no1 [Example 2, N-(5-methyl-1,2-oxazol-3-yl)-1-oxo-2,3,4,5-tetrahydro-1H-[1,4]diazepino[1,2-a]indole-8-carboxamide] | 30
21 | CC(C)(C)c1cc(NC(=O)c2ccc3cc4n(c3c2)CCCNC4=O)sn1 [Example 3, N-(3-tert-butyl-1,2-thiazol-5-yl)-1-oxo-2,3,4,5-tetrahydro-1H-[1,4]diazepino[1,2-a]indole-8-carboxamide] | 240
22 | O=C(Nc1ccc(Cl)cc1)c1ccc2cc3n(c2c1)CCCNC3=O [Example 4, N-(4-chlorophenyl)-1-oxo-2,3,4,5-tetrahydro-1H-[1,4]diazepino[1,2-a]indole-8-carboxamide] | 190
23 | O=C(Nc1ccc2ccccc2n1)c1ccc2cc3n(c2c1)CCCNC3=O [Example 5, 1-oxo-N-(quinolin-2-yl)-2,3,4,5-tetrahydro-1H-[1,4]diazepino[1,2-a]indole-8-carboxamide] | 70
24 | N#Cc1cccc(NC(=O)c2ccc3cc4n(c3c2)CCCNC4=O)c1 [Example 6, N-(3-cyanophenyl)-1-oxo-2,3,4,5-tetrahydro-1H-[1,4]diazepino[1,2-a]indole-8-carboxamide] | 140
25 | O=C(Nc1cccc(N2CCOCC2)c1)c1ccc2cc3n(c2c1)CCCNC3=O [Example 7, N-[3-(morpholin-4-yl)phenyl]-1-oxo-2,3,4,5-tetrahydro-1H-[1,4]diazepino[1,2-a]indole-8-carboxamide] | 60
26 | CC1(C)CNC(=O)c2cc3ccc(C(=O)Nc4cccnc4)cc3n2C1 [Example 9, 4,4-dimethyl-1-oxo-N-(pyridin-3-yl)-2,3,4,5-tetrahydro-1H-[1,4]diazepino[1,2-a]indole-8-carboxamide] | 4600
27 | CC1CCNC(=O)c2cc3ccc(C(=O)Nc4cccnc4)cc3n21 (stereo not shown) [Example 10, 5-methyl-1-oxo-N-(pyridin-3-yl)-2,3,4,5-tetrahydro-1H-[1,4]diazepino[1,2-a]indole-8-carboxamide] | 41
28 | Cn1ccc(NC(=O)c2ccc3cc4n(c3c2)CCCNC4=O)n1 [Example 11, N-(1-methyl-1H-pyrazol-3-yl)-1-oxo-2,3,4,5-tetrahydro-1H-[1,4]diazepino[1,2-a]indole-8-carboxamide] | 540
29 | O=C(Nc1ccn(Cc2ccc(F)cc2)n1)c1ccc2cc3n(c2c1)CCCNC3=O [Example 12, N-[1-(4-fluorobenzyl)-1H-pyrazol-3-yl]-1-oxo-2,3,4,5-tetrahydro-1H-[1,4]diazepino[1,2-a]indole-8-carboxamide] | 220
30 | CC(C)n1ccc(NC(=O)c2ccc3cc4n(c3c2)CCCNC4=O)n1 [Example 13, 1-oxo-N-[1-(propan-2-yl)-1H-pyrazol-3-yl]-2,3,4,5-tetrahydro-1H-[1,4]diazepino[1,2-a]indole-8-carboxamide] | 1600
31 | O=C(Nc1ccn(-c2ccccc2)n1)c1ccc2cc3n(c2c1)CCCNC3=O [Example 14, 1-oxo-N-(1-phenyl-1H-pyrazol-3-yl)-2,3,4,5-tetrahydro-1H-[1,4]diazepino[1,2-a]indole-8-carboxamide] | 108
32 | O=C(Nc1cn[nH]c1)c1ccc2cc3n(c2c1)CCCNC3=O [Example 15, 1-oxo-N-(1H-pyrazol-4-yl)-2,3,4,5-tetrahydro-1H-[1,4]diazepino[1,2-a]indole-8-carboxamide] | 43
33 | CC1(C)CNC(=O)c2cc3ccc(C(=O)Nc4cn[nH]c4)cc3n2C1 [Example 16, 4,4-dimethyl-1-oxo-N-(1H-pyrazol-4-yl)-2,3,4,5-tetrahydro-1H-[1,4]diazepino[1,2-a]indole-8-carboxamide] | 2500
34 | CC1CNC(=O)c2cc3ccc(C(=O)Nc4cn[nH]c4)cc3n2C1 (stereo not shown) [Example 17, 4-methyl-1-oxo-N-(1H-pyrazol-4-yl)-2,3,4,5-tetrahydro-1H-[1,4]diazepino[1,2-a]indole-8-carboxamide] | 145
